Measured values published in patent US11690833B2, “Personal care compositions” (priority 2017, dated 2023).
Like-named read-outs stand apart in the source and are kept apart here.

Key:
[1] = system: oral bacteria; assay: Alamar Blue evaluation of antibacterial efficacy in the presence of the anionic surfactant SLS; format: cell-based, human saliva; settings: 10 mg active + 20 mg of 30 weight % SLS solution + 5 ml oral bacteria solution, 37° C., 1 hour after addition of Alamar Blue dye, color change from blue to red indicates live bacteria
Experimental: In particular, the antibacterial efficacy of a CPC—ZnCl2 complex was compared to ZnCl2 and CPC individually, in the presence of SLS, as follows: human saliva was collected and diluted three times with deionized water, centrifuged, and decanted to yield a translucent solution of oral bacteria. […] A negative control was also prepared adding 20 mg (+/−0.9 mg) of the 30 weight % SLS aqueous solution and 5 ml of the prepared oral bacteria solution to deionized water instead of the antibacterial ingredient. The samples were then placed in a 37° C. oven and shaken at 100 RPM for 30 minutes. 200 μL of Alamar Blue dye was then added to each sample and placed back in the 37° C. oven and shaken at 100 RPM. The samples were then monitored every 30 minutes, with the results 1 hour after addition of the dye recorded in Table 1. Under an Alamar Blue assay, a color change from blue to red indicates the presence of live bacteria.

| Compound | Color of Solution [1] | solubility in water (0.1 weight % solution, room temperature (23-24° C.)) | solubility in water (0.5 weight % solution, room temperature (23-24° C.)) | solubility in water (1.0 weight % solution, physiological temperature (36-37° C.)) | solubility in water (1.0 weight % solution, room temperature (23-24° C.), after 24 hours of aging) | solubility in water (10 weight % solution, physiological temperature (36-37° C.)) | solubility in water (10.0 weight % solution, room temperature (23-24° C.), after 24 hours of aging) | reduction in solubility compared to the CPC and ZnCl2 reactants separately (water) [fold] | Color of Solution ([1]; listed as CPC—ZnCl2 complex) |
| --- | --- | --- | --- | --- | --- | --- | --- | --- | --- |
| CCCCCCCCCCCCCCCC[n+]1ccccc1 [CPC, cetylpyridinium chloride] | pink and Pink |  |  |  |  |  |  |  |  |
| CCCCCCCCCCCCCCCC[n+]1ccccc1.CCCCCCCCCCCCCCCC[n+]1ccccc1.[Cl][Zn-2]([Cl])([Cl])[Cl] [CPC-ZnCl2 complex] | Blue | soluble | soluble | soluble | undissolved | not fully soluble | undissolved | ≥ 25 | blue |
| [Cl-].[Cl-].[Zn+2] [ZnCl2, zinc chloride] | Purple |  |  |  |  |  |  |  |  |
